Data from US20230183193A1, “4-DIFLUOROMETHYL BENZOYL AMIDES WITH HERBICIDAL ACTION” (BAYER CROPSCIENCE AKTIENGESELLSCHAFT, priority 2017, published 2023).

What was measured:
Abutilon theophrasti [1] = test: Pre-emergence herbicidal action, ABUTH; type: in vivo; conditions: for Herbicidal efficacy against ABUTH: Table K; for herbicidal activity ABUTH: dosage 320 g/ha, scored visually after 3 weeks vs untreated controls
Summary of the method: (§1)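 Weed seeds were laid out in sandy loam and covered with soil, then the soil surface was treated with an aqueous suspension or emulsion of the formulated compound containing 0.2% wetting agent. Pots stayed in the greenhouse for 3 weeks before damage was rated visually against untreated plants.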

Alopecurus myosuroides [2] = test: Pre-emergence herbicidal action, ALOMY; type: in vivo; conditions: for herbicidal activity ALOMY: dosage 320 g/ha, scored visually after 3 weeks vs untreated controls
Summary of the method: as §1

Amaranthus retroflexus [3] = test: Pre-emergence herbicidal action, AMARE; type: in vivo; conditions: dosage 320 g/ha, scored visually after 3 weeks vs untreated controls
Summary of the method: as §1

Avena fatua [4] = test: Pre-emergence herbicidal action, AVEFA; type: in vivo; conditions: for herbicidal activity AVEFA: dosage 320 g/ha, scored visually after 3 weeks vs untreated controls
Summary of the method: as §1

Cyperus serotinus = test: Pre-emergence herbicidal action, CYPES; type: in vivo; conditions: for herbicidal activity CYPES: dosage 320 g/ha, scored visually after 3 weeks vs untreated controls
Summary of the method: as §1

Matricaria inodora = test: Pre-emergence herbicidal action, MATIN; type: in vivo; conditions: for Herbicidal efficacy against MATIN: Table K; for herbicidal activity MATIN: dosage 320 g/ha, scored visually after 3 weeks vs untreated controls
Summary of the method: as §1

Polygonum convolvulus = test: Pre-emergence herbicidal action, POLCO; type: in vivo; conditions: Table K
Text: 1. Pre-Emergence Herbicidal Action Against Harmful Plants Seeds of monocotyledonous and dicotyledonous weed plants and crop plants are laid out in sandy loam soil in wood-fiber pots and covered with soil. The compounds of the invention, formulated in the form of wettable powders (WP) or as emulsion concentrates (EC), are then applied to the surface of the covering soil in the form of an aqueous suspension or emulsion at a water application rate equating to […], with addition of 0.2% wetting agent. After the treatment, the pots are placed in a greenhouse and kept under good growth conditions for the trial plants. The damage to the test plants is scored visually after a test period of 3 weeks by comparison with untreated controls (herbicidal activity in percent (%): 100% activity=the plants have died, 0% activity=like control plants).
For comparison, the herbicidal activity of numerous compounds according to the invention was tested with the structurally closest compounds known from the documents WO 2011/035874, WO 2012/028579 and WO 2012/126932, by the pre- and post-emergence method.

Setaria viridis [5] = test: Pre-emergence herbicidal action, SETVI; type: in vivo; conditions: for herbicidal activity SETVI: dosage 320 g/ha, scored visually after 3 weeks vs untreated controls
Summary of the method: as §1

Stellaria media [6] = test: Pre-emergence herbicidal action, STEME; type: in vivo; conditions: dosage 320 g/ha, scored visually after 3 weeks vs untreated controls
Summary of the method: as §1

Viola tricolor [7] = test: Pre-emergence herbicidal action, VIOTR; type: in vivo; conditions: for Herbicidal efficacy against VIOTR: Table K; for herbicidal activity VIOTR: dosage 320 g/ha, scored visually after 3 weeks vs untreated controls
Summary of the method: as §1

Abutilon theophrasti [8] = test: Post-emergence herbicidal action, ABUTH; type: in vivo; conditions: 80 g/ha, Table D
Summary of the method: (§2)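 Herbicidal effect is rated visually as percent versus untreated plants (100% = dead, 0% = like control) about 3 weeks after spraying. Plants were sown in sandy loam in the greenhouse and sprayed on green parts at the one-leaf stage, 2 to 3 weeks post-sowing.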

Alopecurus myosuroides [9] = test: Post-emergence herbicidal action, ALOMY; type: in vivo; conditions: for herbicidal activity ALOMY: Table C
Summary of the method: as §2

Amaranthus retroflexus [10] = test: Post-emergence herbicidal action, AMARE; type: in vivo; conditions: 80 g/ha, Table D
Summary of the method: as §2

Avena fatua [11] = test: Post-emergence herbicidal action, AVEFA; type: in vivo; conditions: for herbicidal activity AVEFA: Table C
Summary of the method: as §2

Pharbitis purpureum = test: Post-emergence herbicidal action, PHBPU; type: in vivo; conditions: 80 g/ha, Table D
Summary of the method: as §2

Setaria viridis [12] = test: Post-emergence herbicidal action, SETVI; type: in vivo; conditions: for herbicidal activity SETVI: Table C
Summary of the method: as §2

Stellaria media [13] = test: Post-emergence herbicidal action, STEME; type: in vivo; conditions: for Herbicidal activity STEME: Table D
Summary of the method: as §2

Viola tricolor [14] = test: Post-emergence herbicidal action, VIOTR; type: in vivo; conditions: for herbicidal activity VIOTR: Table D
Summary of the method: as §2

ECHCG [15] = test: Post-emergence herbicidal action, ECHCG; type: in vivo; conditions: 80 g/ha, Table C
Summary of the method: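 Weed and crop plants grown in sandy loam in the greenhouse, treated at the one-leaf stage 2–3 weeks after sowing. Damage scored visually after about 3 weeks vs untreated controls (0% = control, 100% = dead).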

ECHCG [16] = test: Pre-emergence herbicidal action, ECHCG; type: in vivo, Echinochloa crus-galli

CSc1c(C(F)F)ccc(C(=O)Nc2nnnn2C)c1C [Example 1-1]
Herbicidal efficacy against ABUTH (Abutilon theophrasti [1]; dosage 20 g/ha): 90
Herbicidal efficacy against ABUTH (Abutilon theophrasti [1]; dosage 80 g/ha): 100
herbicidal activity ABUTH (Abutilon theophrasti [1]): 100%
Herbicidal efficacy against ALOMY (Alopecurus myosuroides [2]; 20 g/ha): 90
Herbicidal efficacy against ALOMY (Alopecurus myosuroides [2]; 80 g/ha): 90
herbicidal activity ALOMY (Alopecurus myosuroides [2]): 100%
herbicidal activity AMARE (Amaranthus retroflexus [3]): 100%
Herbicidal efficacy against AVEFA (Avena fatua [4]; 80 g/ha): 90
herbicidal activity AVEFA (Avena fatua [4]): 100%
Herbicidal efficacy against CYPES (Cyperus serotinus; 20 g/ha): 30
Herbicidal efficacy against CYPES (Cyperus serotinus; 80 g/ha): 70
herbicidal activity CYPES (Cyperus serotinus): 80%
Herbicidal efficacy against MATIN (Matricaria inodora; dosage 20 g/ha): 70
Herbicidal efficacy against MATIN (Matricaria inodora; dosage 80 g/ha): 90
herbicidal activity MATIN (Matricaria inodora): 100%
Herbicidal efficacy against POLCO (Polygonum convolvulus; dosage 20 g/ha): 60
Herbicidal efficacy against POLCO (Polygonum convolvulus; dosage 80 g/ha): 70
Herbicidal efficacy against SETVI (Setaria viridis [5]; 20 g/ha): 70
Herbicidal efficacy against SETVI (Setaria viridis [5]; 80 g/ha): 100
herbicidal activity SETVI (Setaria viridis [5]): 100%
Herbicidal activity STEME (Stellaria media [6]): 100%
Herbicidal efficacy against VIOTR (Viola tricolor [7]; dosage 20 g/ha): 100
Herbicidal efficacy against VIOTR (Viola tricolor [7]; dosage 80 g/ha): 100
herbicidal activity VIOTR (Viola tricolor [7]): 100%
herbicidal activity ABUTH (Abutilon theophrasti [8]): 100%
Herbicidal efficacy against ALOMY (Alopecurus myosuroides [9]; 5 g/ha): 60
Herbicidal efficacy against ALOMY (Alopecurus myosuroides [9]; 20 g/ha): 90
Herbicidal efficacy against ALOMY (Alopecurus myosuroides [9]; 80 g/ha): 90
herbicidal activity ALOMY (Alopecurus myosuroides [9]; 80 g/ha): 90%
herbicidal activity AMARE (Amaranthus retroflexus [10]): 100%
Herbicidal efficacy against AVEFA (Avena fatua [11]; 5 g/ha): 40
Herbicidal efficacy against AVEFA (Avena fatua [11]; 20 g/ha): 90
Herbicidal efficacy against AVEFA (Avena fatua [11]; 80 g/ha): 100
herbicidal activity AVEFA (Avena fatua [11]; 80 g/ha): 100%
Herbicidal activity PHBPU (Pharbitis purpureum): 90%
Herbicidal efficacy against SETVI (Setaria viridis [12]; 5 g/ha): 100
Herbicidal efficacy against SETVI (Setaria viridis [12]; 20 g/ha): 100
Herbicidal efficacy against SETVI (Setaria viridis [12]; 80 g/ha): 100
herbicidal activity SETVI (Setaria viridis [12]; 80 g/ha): 100%
Herbicidal efficacy against STEME (Stellaria media [13]; 5 g/ha): 100
Herbicidal efficacy against STEME (Stellaria media [13]; 20 g/ha): 100
Herbicidal efficacy against STEME (Stellaria media [13]; 80 g/ha): 100
Herbicidal activity STEME (Stellaria media [13]; 80 g/ha): 100%
Herbicidal efficacy against VIOTR (Viola tricolor [14]; 5 g/ha): 100
Herbicidal efficacy against VIOTR (Viola tricolor [14]; 20 g/ha): 100
Herbicidal efficacy against VIOTR (Viola tricolor [14]; 80 g/ha): 100
herbicidal activity VIOTR (Viola tricolor [14]; 80 g/ha): 100%
Herbicidal activity ECHCG (ECHCG [15]): 100%
Herbicidal efficacy against ECHCG (ECHCG [16]; 20 g/ha): 80
Herbicidal efficacy against ECHCG (ECHCG [16]; 80 g/ha): 100

CSc1c(C(F)F)ccc(C(=O)Nc2nnnn2C)c1Cl [Example 1-49]
Herbicidal efficacy against ABUTH (Abutilon theophrasti [1]; dosage 20 g/ha): 70
Herbicidal efficacy against ABUTH (Abutilon theophrasti [1]; dosage 80 g/ha): 100
herbicidal activity ABUTH (Abutilon theophrasti [1]): 100%
Herbicidal efficacy against ALOMY (Alopecurus myosuroides [2]; 20 g/ha): 40
Herbicidal efficacy against ALOMY (Alopecurus myosuroides [2]; 80 g/ha): 90
herbicidal activity ALOMY (Alopecurus myosuroides [2]): 100%
herbicidal activity AMARE (Amaranthus retroflexus [3]): 100%
Herbicidal efficacy against AVEFA (Avena fatua [4]; 20 g/ha): 50
Herbicidal efficacy against AVEFA (Avena fatua [4]; 80 g/ha): 80
herbicidal activity AVEFA (Avena fatua [4]): 100%
Herbicidal efficacy against CYPES (Cyperus serotinus; 20 g/ha): 50
Herbicidal efficacy against CYPES (Cyperus serotinus; 80 g/ha): 70
herbicidal activity CYPES (Cyperus serotinus): 90%
Herbicidal efficacy against MATIN (Matricaria inodora; dosage 20 g/ha): 80
herbicidal activity MATIN (Matricaria inodora): 100%
Herbicidal efficacy against POLCO (Polygonum convolvulus; dosage 80 g/ha): 50
Herbicidal efficacy against SETVI (Setaria viridis [5]; 20 g/ha): 90
herbicidal activity SETVI (Setaria viridis [5]): 100%
Herbicidal activity STEME (Stellaria media [6]): 90%
Herbicidal efficacy against VIOTR (Viola tricolor [7]; dosage 20 g/ha): 100
Herbicidal efficacy against VIOTR (Viola tricolor [7]; dosage 80 g/ha): 100
herbicidal activity VIOTR (Viola tricolor [7]): 100%
herbicidal activity ABUTH (Abutilon theophrasti [8]): 90%
Herbicidal efficacy against ALOMY (Alopecurus myosuroides [9]; 5 g/ha): 60
herbicidal activity ALOMY (Alopecurus myosuroides [9]; 80 g/ha): 90%
herbicidal activity AMARE (Amaranthus retroflexus [10]): 80%
Herbicidal efficacy against AVEFA (Avena fatua [11]; 5 g/ha): 50
herbicidal activity AVEFA (Avena fatua [11]; 80 g/ha): 100%
Herbicidal activity PHBPU (Pharbitis purpureum): 90%
Herbicidal efficacy against SETVI (Setaria viridis [12]; 5 g/ha): 80
herbicidal activity SETVI (Setaria viridis [12]; 80 g/ha): 90%
Herbicidal efficacy against STEME (Stellaria media [13]; 5 g/ha): 70
Herbicidal activity STEME (Stellaria media [13]; 80 g/ha): 100%
Herbicidal efficacy against VIOTR (Viola tricolor [14]; 5 g/ha): 100
herbicidal activity VIOTR (Viola tricolor [14]; 80 g/ha): 100%
Herbicidal activity ECHCG (ECHCG [15]): 80%
Herbicidal efficacy against ECHCG (ECHCG [16]; 20 g/ha): 50
Herbicidal efficacy against ECHCG (ECHCG [16]; 80 g/ha): 100
